{"source": "ChEMBL document CHEMBL4828709", "about": "“Discovery of 2,4-pyrimidinediamine derivatives as potent dual inhibitors of ALK and HDAC” (Eur J Med Chem, 2021)", "key": {"[1]": {"biological_target": "T1, Protein deacetylase HDAC6 (Homo sapiens, UniProt Q9UBN7)", "T1 sequence (Q9UBN7 whole entry)": "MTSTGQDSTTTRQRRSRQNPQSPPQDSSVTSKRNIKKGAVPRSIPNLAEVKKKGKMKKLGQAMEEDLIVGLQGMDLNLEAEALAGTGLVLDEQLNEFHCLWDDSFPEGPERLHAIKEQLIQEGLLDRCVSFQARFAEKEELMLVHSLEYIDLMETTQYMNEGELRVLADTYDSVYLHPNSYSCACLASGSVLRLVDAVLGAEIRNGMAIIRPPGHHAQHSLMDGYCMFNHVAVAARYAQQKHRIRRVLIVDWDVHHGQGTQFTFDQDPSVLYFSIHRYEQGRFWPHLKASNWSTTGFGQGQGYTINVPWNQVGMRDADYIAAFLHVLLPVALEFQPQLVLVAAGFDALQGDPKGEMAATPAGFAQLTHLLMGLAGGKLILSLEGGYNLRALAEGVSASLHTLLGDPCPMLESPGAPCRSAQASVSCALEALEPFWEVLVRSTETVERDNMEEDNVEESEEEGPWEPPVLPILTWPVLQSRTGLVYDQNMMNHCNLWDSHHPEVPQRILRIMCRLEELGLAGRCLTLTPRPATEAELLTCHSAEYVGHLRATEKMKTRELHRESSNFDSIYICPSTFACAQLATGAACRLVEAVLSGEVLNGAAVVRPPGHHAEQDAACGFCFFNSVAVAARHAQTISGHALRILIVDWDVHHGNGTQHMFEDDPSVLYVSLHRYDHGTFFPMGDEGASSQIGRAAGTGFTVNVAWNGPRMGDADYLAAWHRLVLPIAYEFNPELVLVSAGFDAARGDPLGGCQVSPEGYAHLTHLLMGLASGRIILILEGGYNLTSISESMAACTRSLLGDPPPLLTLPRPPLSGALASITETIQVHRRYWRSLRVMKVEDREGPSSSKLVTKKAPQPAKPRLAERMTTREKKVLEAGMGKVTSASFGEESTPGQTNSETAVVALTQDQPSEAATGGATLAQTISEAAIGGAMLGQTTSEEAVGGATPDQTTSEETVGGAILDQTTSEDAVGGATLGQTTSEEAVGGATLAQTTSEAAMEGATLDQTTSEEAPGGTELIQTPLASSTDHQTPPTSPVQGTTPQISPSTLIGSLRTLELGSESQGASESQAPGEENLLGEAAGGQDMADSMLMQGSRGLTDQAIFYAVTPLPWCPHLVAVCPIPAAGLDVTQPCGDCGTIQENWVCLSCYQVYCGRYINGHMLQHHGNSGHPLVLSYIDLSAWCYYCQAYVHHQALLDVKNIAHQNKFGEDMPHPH", "description": "Inhibition of HDAC6 (unknown origin)"}, "MDA-MB-231 [2]": {"system": "MDA-MB-231", "assay": "Potency index, ratio of ceritinib IC50 to test compound IC50 for human MDA-MB-231 cells assessed as inhibition of cell proliferation measured after 72 hrs by CCK8 assay", "format": "functional"}, "SH-SY5Y [3]": {"system": "SH-SY5Y", "assay": "Cell cycle arrest in human SH-SY5Y cells assessed as accumulation of cells at G2 phase at 2 uM measured after 24 hrs by PI staining based Flowcytometry method (reference value: 13.23%)", "format": "functional"}, "SH-SY5Y [4]": {"system": "SH-SY5Y", "assay": "Potency index, ratio of ceritinib IC50 to test compound IC50 for human SH-SY5Y cells harboring ALK F1174L mutant assessed as inhibition of cell proliferation measured after 72 hrs by CCK8 assay", "format": "functional"}, "MDA-MB-231 [5]": {"system": "MDA-MB-231", "assay": "Cell cycle arrest in human MDA-MB-231 cells assessed as accumulation of cells at G1 phase at 1 uM measured after 24 hrs by PI staining based flowcytometry method (reference value: 55.32%)", "format": "functional"}, "SH-SY5Y [6]": {"system": "SH-SY5Y", "assay": "Induction of apoptosis in human SH-SY5Y cells assessed as early apoptotic cells at 1 uM measured after 24 hrs by Annexin V-FITC/PI staining based flowcytometry (reference value: 0.82%)", "format": "functional"}, "SH-SY5Y [7]": {"system": "SH-SY5Y", "assay": "Cell cycle arrest in human SH-SY5Y cells assessed as accumulation of cells at S phase at 2 uM measured after 24 hrs by PI staining based flowcytometry method (reference value: 27.69%)", "format": "functional"}, "MDA-MB-231 [8]": {"system": "MDA-MB-231", "assay": "Cell cycle arrest in human MDA-MB-231 cells assessed as accumulation of cells at S phase at 2 uM measured after 24 hrs by PI staining based flowcytometry method (reference value: 20.81%)", "format": "functional"}, "[9]": {"biological_target": "T2, ALK tyrosine kinase receptor (Homo sapiens, UniProt Q9UM73)", "T2 sequence (Q9UM73 19-1620 limits assumed)": "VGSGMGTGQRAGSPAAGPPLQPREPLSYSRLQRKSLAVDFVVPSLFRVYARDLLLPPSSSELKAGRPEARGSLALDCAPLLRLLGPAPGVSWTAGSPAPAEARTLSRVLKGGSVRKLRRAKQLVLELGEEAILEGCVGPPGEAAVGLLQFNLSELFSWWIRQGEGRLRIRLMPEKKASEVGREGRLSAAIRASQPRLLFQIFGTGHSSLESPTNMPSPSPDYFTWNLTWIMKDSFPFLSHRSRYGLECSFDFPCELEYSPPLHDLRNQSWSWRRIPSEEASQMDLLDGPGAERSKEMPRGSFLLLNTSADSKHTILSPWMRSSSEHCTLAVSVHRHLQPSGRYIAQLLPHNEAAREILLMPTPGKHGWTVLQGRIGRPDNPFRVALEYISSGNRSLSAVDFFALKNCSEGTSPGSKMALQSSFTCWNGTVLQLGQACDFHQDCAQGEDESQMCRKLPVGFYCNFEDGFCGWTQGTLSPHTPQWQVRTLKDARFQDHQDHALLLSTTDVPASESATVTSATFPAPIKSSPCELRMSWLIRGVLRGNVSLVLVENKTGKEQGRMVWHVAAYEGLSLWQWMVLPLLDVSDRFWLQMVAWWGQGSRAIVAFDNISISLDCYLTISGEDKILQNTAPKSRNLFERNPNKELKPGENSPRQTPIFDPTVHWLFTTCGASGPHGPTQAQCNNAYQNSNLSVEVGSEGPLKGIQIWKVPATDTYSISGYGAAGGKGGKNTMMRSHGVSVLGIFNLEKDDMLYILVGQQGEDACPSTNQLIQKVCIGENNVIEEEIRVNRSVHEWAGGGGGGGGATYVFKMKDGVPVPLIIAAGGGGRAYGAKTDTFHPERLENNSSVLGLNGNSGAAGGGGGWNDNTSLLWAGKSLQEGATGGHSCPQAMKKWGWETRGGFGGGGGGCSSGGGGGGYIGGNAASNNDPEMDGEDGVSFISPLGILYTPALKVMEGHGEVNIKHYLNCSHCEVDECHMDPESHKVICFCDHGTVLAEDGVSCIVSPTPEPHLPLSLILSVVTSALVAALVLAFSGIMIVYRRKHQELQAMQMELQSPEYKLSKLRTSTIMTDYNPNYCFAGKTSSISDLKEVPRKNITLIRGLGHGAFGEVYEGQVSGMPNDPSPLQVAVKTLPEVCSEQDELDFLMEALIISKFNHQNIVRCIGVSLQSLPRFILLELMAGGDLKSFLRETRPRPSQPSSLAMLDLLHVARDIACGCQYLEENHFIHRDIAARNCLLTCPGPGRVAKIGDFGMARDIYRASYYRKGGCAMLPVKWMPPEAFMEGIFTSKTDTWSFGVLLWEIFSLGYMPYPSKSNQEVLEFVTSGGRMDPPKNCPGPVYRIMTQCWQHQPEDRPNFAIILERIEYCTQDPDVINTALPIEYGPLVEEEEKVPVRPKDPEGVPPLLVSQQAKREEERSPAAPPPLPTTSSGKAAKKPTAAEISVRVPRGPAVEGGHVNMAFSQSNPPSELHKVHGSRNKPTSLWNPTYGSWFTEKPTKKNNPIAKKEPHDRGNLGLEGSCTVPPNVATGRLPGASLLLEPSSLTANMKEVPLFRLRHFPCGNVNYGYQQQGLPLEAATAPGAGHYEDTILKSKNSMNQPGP", "assay": "Inhibition of ALK in human MDA-MB-231 cells assessed as inhibition of ERK phosphorylation at Thr202/Tyr204 residue measured after 24 hrs by Western blot assay", "format": "cell-based", "conditions": "dose 1-4 µM"}, "MDA-MB-231 [10]": {"system": "MDA-MB-231", "assay": "Induction of apoptosis in human MDA-MB-231 cells assessed as viable cells at 4 uM measured after 24 hrs by Annexin V-FITC/PI staining based flowcytometry (reference value: 93.14%)", "format": "functional", "conditions": "read-out: Activity"}, "NCI-H2228": {"system": "NCI-H2228", "assay": "Potency index, ratio of ceritinib IC50 to test compound IC50 for human NCI-H2228 cells harboring EML4/ALK […] assessed as inhibition of cell proliferation measured after 72 hrs by CCK8 assay", "format": "functional"}, "[11]": {"assay": "MRT (0 to infinity) in Sprague-Dawley rat at 1 mg/kg, iv measured for 12 hrs by LC-MS/MS analysis", "format": "ADME, organism-based", "conditions": "in vivo"}, "SH-SY5Y [12]": {"system": "SH-SY5Y", "assay": "cells", "format": "functional, cell-based", "conditions": "Homo sapiens, 72 h", "description": "Antiproliferative activity against human SH-SY5Y cells harboring ALK F1174L mutant assessed as inhibition of cell proliferation measured after 72 hrs by CCK8 assay"}, "SH-SY5Y [13]": {"system": "SH-SY5Y", "assay": "Inhibition of colony formation in human SH-SY5Y cells at 0.1 to 0.4 uM incubated for 3 days followed by incubation in drug-free medium for 12 days by crystal violet staining based assay", "format": "functional, cell-based", "conditions": "dose 0.1-0.4 µM, time 3.0 day"}, "[14]": {"biological_target": "T2, ALK tyrosine kinase receptor", "assay": "Inhibition of human ALK in human SH-SY5Y cells assessed as inhibition of Akt phosphorylation at Ser473 residue at 4 uM measured after 24 hrs by Western blot assay", "format": "cell-based"}, "SH-SY5Y [15]": {"system": "SH-SY5Y", "assay": "Induction of apoptosis in human SH-SY5Y cells assessed as viable cells at 1 uM measured after 24 hrs by Annexin V-FITC/PI staining based flowcytometry (reference value: 77.05%)", "format": "functional", "conditions": "read-out: Activity"}, "[16]": {"biological_target": "Insulin-like growth factor 1 receptor (Homo sapiens) (UniProt P08069)", "sequence (P08069 31-736 limits assumed)": "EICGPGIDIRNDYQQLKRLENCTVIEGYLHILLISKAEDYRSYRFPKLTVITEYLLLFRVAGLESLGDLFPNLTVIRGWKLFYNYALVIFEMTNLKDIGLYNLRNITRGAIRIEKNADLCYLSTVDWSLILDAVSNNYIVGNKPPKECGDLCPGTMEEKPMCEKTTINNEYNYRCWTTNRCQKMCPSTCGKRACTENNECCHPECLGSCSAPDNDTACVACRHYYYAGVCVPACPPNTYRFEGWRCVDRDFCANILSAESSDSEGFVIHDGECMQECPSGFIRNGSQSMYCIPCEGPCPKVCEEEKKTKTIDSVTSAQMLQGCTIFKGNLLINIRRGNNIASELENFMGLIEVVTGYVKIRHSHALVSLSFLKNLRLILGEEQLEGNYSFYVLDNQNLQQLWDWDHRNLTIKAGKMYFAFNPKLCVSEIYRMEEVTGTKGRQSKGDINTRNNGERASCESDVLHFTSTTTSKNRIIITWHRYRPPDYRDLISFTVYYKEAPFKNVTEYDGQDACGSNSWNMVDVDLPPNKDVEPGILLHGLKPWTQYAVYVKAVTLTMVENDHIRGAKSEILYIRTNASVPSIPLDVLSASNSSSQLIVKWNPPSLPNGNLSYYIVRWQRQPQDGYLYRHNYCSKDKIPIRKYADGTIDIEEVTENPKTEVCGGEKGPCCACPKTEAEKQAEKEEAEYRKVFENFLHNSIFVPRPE", "sequence (P08069 741-1367 limits assumed)": "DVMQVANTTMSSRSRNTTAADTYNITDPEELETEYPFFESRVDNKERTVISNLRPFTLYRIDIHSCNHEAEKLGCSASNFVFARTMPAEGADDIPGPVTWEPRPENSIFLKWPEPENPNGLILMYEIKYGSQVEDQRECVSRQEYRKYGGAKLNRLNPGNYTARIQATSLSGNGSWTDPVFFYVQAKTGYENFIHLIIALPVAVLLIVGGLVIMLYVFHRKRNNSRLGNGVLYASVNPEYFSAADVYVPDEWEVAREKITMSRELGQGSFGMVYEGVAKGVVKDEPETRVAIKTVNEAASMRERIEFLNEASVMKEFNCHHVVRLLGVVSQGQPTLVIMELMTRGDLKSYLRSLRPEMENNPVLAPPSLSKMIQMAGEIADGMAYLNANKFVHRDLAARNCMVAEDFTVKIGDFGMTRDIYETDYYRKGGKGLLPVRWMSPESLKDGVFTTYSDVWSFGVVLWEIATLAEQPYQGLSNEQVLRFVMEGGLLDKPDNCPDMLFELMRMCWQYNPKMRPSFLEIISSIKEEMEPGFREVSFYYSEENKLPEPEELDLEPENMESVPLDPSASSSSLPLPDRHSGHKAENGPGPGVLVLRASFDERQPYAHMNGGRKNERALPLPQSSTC", "assay": "Inhibition of human IGF1R at 1 uM"}, "Homo sapiens": {"organism": "Homo sapiens", "assay": "Inhibition of human FLT at 1 uM"}, "[17]": {"biological_target": "Fibroblast growth factor receptor (Homo sapiens) (UniProt P22607+P11362+P22455+P21802)", "assay": "Inhibition of human FGFR at 1 uM", "format": "protein assay"}, "SH-SY5Y [18]": {"system": "SH-SY5Y", "assay": "Cell cycle arrest in human SH-SY5Y cells assessed as accumulation of cells at G1 phase at 4 uM measured after 24 hrs by PI staining based flowcytometry method (reference value: 59.8%)", "format": "functional"}, "SH-SY5Y [19]": {"system": "SH-SY5Y", "assay": "Induction of apoptosis in human SH-SY5Y cells assessed as necrotic cells at 4 uM measured after 24 hrs by Annexin V-FITC/PI staining based flowcytometry (reference value: 7.81%)", "format": "functional"}, "[20]": {"biological_target": "T2, ALK tyrosine kinase receptor", "assay": "Inhibition of human ALK in human SH-SY5Y cells assessed as inhibition of ALK phosphorylation at Tyr1278 residue measured after 24 hrs by Western blot assay", "format": "cell-based", "conditions": "dose 1-4 µM"}}, "note": "Calls of active or inactive are those of the source. The calls are words filed in the database; no cut-off is given here.", "data": [{"smiles": "CC(C)S(=O)(=O)c1ccccc1Nc1nc(Nc2ccc(NC(=O)CCCCCCC(=O)NO)cc2)ncc1Cl", "values": [{"measurement": "IC50", "setting": "[1]", "value": 4.4, "unit": "nM"}, {"measurement": "Ratio IC50", "setting": "MDA-MB-231 [2]", "value": 3}, {"measurement": "Activity", "setting": "SH-SY5Y [3]", "value": 75.94, "unit": "%"}, {"measurement": "Ratio IC50", "setting": "SH-SY5Y [4]", "value": 3}, {"measurement": "Activity", "setting": "MDA-MB-231 [5]", "value": 35.05, "unit": "%"}, {"measurement": "Activity", "setting": "SH-SY5Y [6]", "value": 1.21, "unit": "%"}, {"measurement": "Activity", "setting": "SH-SY5Y [7]", "value": 20.49, "unit": "%"}, {"measurement": "Activity", "setting": "MDA-MB-231 [8]", "value": 21.32, "unit": "%"}, {"measurement": "inhibition", "setting": "[9]", "value": "Dose-Dependent Effect"}, {"measurement": "viability at 4 µM", "setting": "MDA-MB-231 [10]", "value": 76.9, "unit": "%"}, {"measurement": "Ratio IC50", "setting": "NCI-H2228", "value": 3}, {"measurement": "MRT", "setting": "[11]", "value": 7.8, "unit": "min"}, {"measurement": "IC50", "setting": "SH-SY5Y [12]", "value": 110, "unit": "nM"}, {"measurement": "inhibition", "setting": "SH-SY5Y [13]", "value": "Active"}, {"measurement": "inhibition", "setting": "[14]", "value": "Active"}, {"measurement": "viability at 1 µM", "setting": "SH-SY5Y [15]", "value": 87.9, "unit": "%"}, {"measurement": "inhibition", "setting": "[16]", "value": "Active"}, {"measurement": "inhibition", "setting": "Homo sapiens", "value": "Active"}, {"measurement": "inhibition", "setting": "[17]", "value": 95, "unit": "%"}, {"measurement": "Activity", "setting": "SH-SY5Y [18]", "value": 4.38, "unit": "%"}, {"measurement": "Activity", "setting": "SH-SY5Y [19]", "value": 12.95, "unit": "%"}, {"measurement": "inhibition", "setting": "[20]", "value": "Dose-Dependent Effect"}]}]}
